Results on 20 molecules are retold here after ChEMBL document CHEMBL2074266, “Molecular cloning and characterization of multispecific organic anion transporter 4 expressed in the placenta” (J Biol Chem, 2000).

The target of data set [1] is T1, Solute carrier family 22 member 11 (Homo sapiens, UniProt Q9NSA0).
T1 sequence (Q9NSA0 whole entry): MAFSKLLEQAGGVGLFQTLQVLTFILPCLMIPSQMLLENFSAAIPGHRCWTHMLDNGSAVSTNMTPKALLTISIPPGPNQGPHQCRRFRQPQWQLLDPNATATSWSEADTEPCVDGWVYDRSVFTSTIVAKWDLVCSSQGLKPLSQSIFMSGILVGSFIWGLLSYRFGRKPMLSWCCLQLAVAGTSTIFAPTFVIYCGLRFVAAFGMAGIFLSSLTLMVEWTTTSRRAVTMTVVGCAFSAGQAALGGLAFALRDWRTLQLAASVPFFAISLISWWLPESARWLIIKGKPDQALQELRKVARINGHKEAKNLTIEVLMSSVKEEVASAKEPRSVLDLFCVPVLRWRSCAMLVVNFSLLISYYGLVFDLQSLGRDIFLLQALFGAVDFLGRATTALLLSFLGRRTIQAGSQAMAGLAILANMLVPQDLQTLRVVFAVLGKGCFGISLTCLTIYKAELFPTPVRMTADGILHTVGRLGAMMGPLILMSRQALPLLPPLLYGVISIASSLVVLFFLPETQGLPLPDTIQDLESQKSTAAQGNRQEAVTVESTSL
Description: TP_TRANSPORTER: inhibition of E1S uptake (E1S: 0.05 uM, Corticosterone: 500 uM) in Xenopus laevis oocytes. It is filed as functional, cell-based. Conditions: oocyte.

For data set [2], the target named is T1, Solute carrier family 22 member 11. In words: TP_TRANSPORTER: inhibition of E1S uptake (E1S: 0.05 uM, 4-methylumbelliferyl sulfate: 500 uM) in Xenopus laevis oocytes. It is filed as functional, cell-based. Conditions: oocyte.
Data set [3] shares this target. Description: TP_TRANSPORTER: inhibition of E1S uptake (E1S: 0.05 uM, Indomethacin: 500 uM) in Xenopus laevis oocytes. Conditions: oocyte. It is filed as functional, cell-based.
For data set [4] the target is unchanged. In words: TP_TRANSPORTER: inhibition of E1S uptake (E1S: 0.05 uM, alpha-naphthyl beta-D-glucuronide: 500 uM) in Xenopus laevis oocytes. It is filed as functional, cell-based. Conditions: oocyte.
For data set [5] the target is unchanged. In words: TP_TRANSPORTER: inhibition of E1S uptake (E1S: 0.05 uM, Ibuprofen: 500 uM) in Xenopus laevis oocytes. It is filed as functional, cell-based. Conditions: oocyte.
Data set [6] shares this target. Description: TP_TRANSPORTER: inhibition of E1S uptake (E1S: 0.05 uM, DHEAS: 500 uM) in Xenopus laevis oocytes. It is filed as functional, cell-based. Conditions: oocyte.
For data set [7] the target is unchanged. Description: TP_TRANSPORTER: inhibition of E1S uptake (E1S: 0.05 uM, beta-estradiol sulfate: 500 uM) in Xenopus laevis oocytes. It is filed as functional, cell-based. Conditions: oocyte.
For data set [8] the target is unchanged. Description: TP_TRANSPORTER: inhibition of E1S uptake (E1S: 0.05 uM, Glutarate: 500 uM) in Xenopus laevis oocytes. It is filed as functional, cell-based. Conditions: oocyte.
Data set [9] shares this target. Description: TP_TRANSPORTER: inhibition of E1S uptake (E1S: 0.05 uM, p-Nitrophenyl glucuronide: 500 uM) in Xenopus laevis oocytes. It is filed as functional, cell-based. Conditions: oocyte.
For data set [10] the target is unchanged. Description: TP_TRANSPORTER: inhibition of E1S uptake (E1S: 0.05 uM, Acetaminophen glucuronide: 500 uM) in Xenopus laevis oocytes. It is filed as functional, cell-based. Conditions: oocyte.
Data set [11] has the same target. In words: TP_TRANSPORTER: inhibition of E1S uptake (E1S: 0.05 uM, Diclofenac: 500 uM) in Xenopus laevis oocytes. The class given is functional, cell-based. Conditions: oocyte.
For data set [12] the target is unchanged. Description: (§1) TP_TRANSPORTER: uptake in Xenopus laevis oocytes. The class given is functional, cell-based. Conditions: oocyte.
For data set [13] the target is unchanged. Description: TP_TRANSPORTER: inhibition of E1S uptake (E1S: 0.05 uM, 4-methylumbeliferone glucuronide: 500 uM) in Xenopus laevis oocytes. Conditions: oocyte. The class given is functional, cell-based.
Data set [14] has the same target. Description: TP_TRANSPORTER: inhibition of E1S uptake (E1S: 0.05 uM, Furosemide: 500 uM) in Xenopus laevis oocytes. The class given is functional, cell-based. Conditions: oocyte.
For data set [15] the target is unchanged. Description: TP_TRANSPORTER: inhibition of E1S uptake (E1S: 0.05 uM, Bumetanide: 500 uM) in Xenopus laevis oocytes. Conditions: oocyte. It is filed as functional, cell-based.
For data set [16] the target is unchanged. Description: TP_TRANSPORTER: inhibition of E1S uptake (E1S: 0.05 uM, beta-Estradiol: 500 uM) in Xenopus laevis oocytes. The class given is functional, cell-based. Conditions: oocyte.
Data set [17] has the same target. In words: TP_TRANSPORTER: inhibition of E1S uptake (E1S: 0.05 uM, Estradiol-3-glucuronide: 500 uM) in Xenopus laevis oocytes. The class given is functional, cell-based. Conditions: oocyte.
For data set [18] the target is unchanged. Description: TP_TRANSPORTER: inhibition of E1S uptake (E1S: 0.05 uM, BSP: 100 uM) in Xenopus laevis oocytes. It is filed as functional, cell-based. Conditions: oocyte.
Substrate in data set [19]: C[C@]12CC[C@@H]3c4ccc(OS(=O)(=O)O)cc4CC[C@H]3[C@@H]1CCC2=O
The description is as §1. It is filed as functional, cell-based, Oocyte.

Substrate in data set [20]: [H][C@@]12CC=C3C[C@@H](OS(=O)(=O)O)CC[C@]3(C)[C@@]1([H])CC[C@]1(C)C(=O)CC[C@@]21[H]
Described as §1. It is filed as functional, cell-based, Oocyte.

With `C[C@]12C[C@H](O)[C@H]3[C@@H](CCC4=CC(=O)CC[C@@]43C)[C@@H]1CC[C@@H]2C(=O)CO` [CORTICOSTERONE], in data set [1], the Activity result was “inhibitor [(at a rough estimate) 30 % of control]”. Take `Cc1cc(=O)oc2cc(OS(=O)(=O)O)ccc12`: in data set [2], the Activity entry was “inhibitor [(at a rough estimate) 40 % of control]”. With `COc1ccc2c(c1)c(CC(=O)O)c(C)n2C(=O)c1ccc(Cl)cc1` [INDOMETHACIN], the Activity result in data set [3] is “inhibitor [(at a rough estimate) 5 % of control]”. In the case of `O=C(O)[C@H]1O[C@@H](Oc2cccc3ccccc23)[C@H](O)[C@@H](O)[C@@H]1O`, the Activity entry in [4] is “is not an inhibitor [-]”.

On to `CC(C)Cc1ccc(C(C)C(=O)O)cc1` (stereo unspecified) [IBUPROFEN], for which the Activity entry in data set [5] is “inhibitor [(at a rough estimate) 10 % of control]”. `C[C@]12CC[C@H](OS(=O)(=O)O)CC1=CC[C@@H]1[C@@H]2CC[C@]2(C)C(=O)CC[C@@H]12` [PRASTERONE SULFURIC ACID]: the Activity entry in data set [6] is “inhibitor [(at a rough estimate) 15 % of control]”. As for `C[C@]12CC[C@@H]3c4ccc(OS(=O)(=O)O)cc4CC[C@H]3[C@@H]1CC[C@@H]2O`, the Activity entry in [7] was “inhibitor [(at a rough estimate) 25 % of control]”.

On to `O=C(O)CCCC(=O)O` [GLUTARATE], for which, in data set [8], the Activity result is “is not an inhibitor [-]”. Consider `O=C(O)[C@H]1O[C@@H](Oc2ccc([N+](=O)[O-])cc2)[C@H](O)[C@@H](O)[C@@H]1O`, for which, in data set [9], the Activity result is “is not an inhibitor [-]”. On to `CC(=O)Nc1ccc(O[C@@H]2O[C@H](C(=O)O)[C@@H](O)[C@H](O)[C@H]2O)cc1` [ACETAMINOPHEN GLUCURONIDE], for which, in data set [10], the Activity result is “is not an inhibitor [-]”. For the molecule `O=C(O)Cc1ccccc1Nc1c(Cl)cccc1Cl` [DICLOFENAC], in data set [11], the Activity result was “inhibitor [(at a rough estimate) 5 % of control]”. With `C[C@@H]1Cc2c(Cl)cc(C(=O)N[C@@H](Cc3ccccc3)C(=O)O)c(O)c2C(=O)O1` [3R14S-OCHRATOXIN A], the Activity result in [12] was “substrate [+]”. On to `O=C(O)[C@H]1O[C@@H](OCc2cc(=O)oc3cc(O)ccc23)[C@H](O)[C@@H](O)[C@@H]1O`, for which, in data set [13], the Activity result was “is not an inhibitor [-]”.

For the molecule `NS(=O)(=O)c1cc(C(=O)O)c(NCc2ccco2)cc1Cl` [FUROSEMIDE], the Activity entry in data set [14] is “inhibitor [(at a rough estimate) 5 % of control]”. Take `Nc1ccc(C(=O)NCC(=O)O)cc1` [AMINOHIPPURIC ACID]: the Activity result in data set [12] was “substrate [+]”.

In the case of `CCCCNc1cc(C(=O)O)cc(S(N)(=O)=O)c1Oc1ccccc1` [BUMETANIDE], the Activity result in data set [15] was “inhibitor [(at a rough estimate) 15 % of control]”. As for `C[C@]12CC[C@@H]3c4ccc(O)cc4CC[C@H]3[C@@H]1CC[C@@H]2O` [ESTRADIOL], the Activity entry in data set [16] was “is not an inhibitor [-]”. In the case of `C[C@]12CC[C@@H]3c4ccc(O[C@@H]5O[C@H](C(=O)O)[C@@H](O)[C@H](O)[C@H]5O)cc4CC[C@H]3[C@@H]1CC[C@@H]2O`, in [17], the Activity result was “is not an inhibitor [-]”.

`O=C1OC(c2ccc(O)c(S(=O)(=O)[O-])c2)(c2ccc(O)c(S(=O)(=O)[O-])c2)c2c(Br)c(Br)c(Br)c(Br)c21.[Na+].[Na+]` [SULFOBROMOPHTHALEIN SODIUM]: the Activity result in [18] was “inhibitor [(at a rough estimate) <5 % of control]”.

B1: Solute carrier family 22 member 11 (Homo sapiens) (protein)
chain: MAFSKLLEQAGGVGLFQTLQVLTFILPCLMIPSQMLLENFSAAIPGHRCWTHMLDNGSAVSTNMTPKALLTISIPPGPNQGPHQCRRFRQPQWQLLDPNATATSWSEADTEPCVDGWVYDRSVFTSTIVAKWDLVCSSQGLKPLSQSIFMSGILVGSFIWGLLSYRFGRKPMLSWCCLQLAVAGTSTIFAPTFVIYCGLRFVAAFGMAGIFLSSLTLMVEWTTTSRRAVTMTVVGCAFSAGQAALGGLAFALRDWRTLQLAASVPFFAISLISWWLPESARWLIIKGKPDQALQELRKVARINGHKEAKNLTIEVLMSSVKEEVASAKEPRSVLDLFCVPVLRWRSCAMLVVNFSLLISYYGLVFDLQSLGRDIFLLQALFGAVDFLGRATTALLLSFLGRRTIQAGSQAMAGLAILANMLVPQDLQTLRVVFAVLGKGCFGISLTCLTIYKAELFPTPVRMTADGILHTVGRLGAMMGPLILMSRQALPLLPPLLYGVISIASSLVVLFFLPETQGLPLPDTIQDLESQKSTAAQGNRQEAVTVESTSL
What is called Km is the substrate concentration at which the rate is half of its maximum. Regarding B1, the Km in data set [19] stood at 1.01 µM; in [20] it was 0.63 µM.
